Data as given in patent publication US20250034084A1, “COMPOSITIONS AND METHODS FOR PREVENTING OR TREATING MYCOSIS” (AMTIXBIO CO., LTD., priority 2016, published 2025).
Values after ≈ are worked out from the molar mass of the structure shown.

What was measured:
[1] = tested on: Candida albicans SC5314 (ATCC); test: Antifungal activity assay (MIC), NCCLS method; format: cell-based; settings: RPMI 1640 medium
Excerpt: (§1) In order to measure the minimum inhibitory concentration (MIC), strains Candida albicans SC5314 (ATCC), Candida glabrata BG2 (ATCC), and Cryptococcus neoformans var. grubii […] were used. All the strains used in the test examples of the present invention were purchased from Korean Culture Center of Microorganisms (KCCM) and ATCC, and used. […] As a control group, amphotericin B and fluconazole, which are known to have excellent antifungal inhibitory activity with a problem of human toxicity, were used. Specifically, in order to prepare a medium first, 8.4 g of RPMI-1640 powder (Sigma; […]-1L) was added to 900 ml of distilled water. Next, 34.5 g of MOPS was added thereto, to bring the final concentration to 0.165 M. Then, 100 ml of 20% glucose was added thereto, and then the pH of the resultant was adjusted to 7 using NaOH. Next, after performing filtration with a filter, the filtrate was stored in a refrigeration condition at 4° C. for use in the next experiment. The experimental method and procedure for the MIC assay were as follows: […] (c) in a case of Aspergillus fumigatus, a diluent was prepared at a concentration of 1×10^5 conidia/ml; (d) a 96-well plate was used and 100 μl of the solution was added to each well, so that 2 μl of diluted drug was prepared; (e) 200 μl of the solution was added to a well into which the highest concentration of drug was to be added, and dilution was performed by serial dilution; (f) after performing static culture for 48 hours at 37° C., a degree of growth was measured at OD600 and a comparison was made.

[2] = tested on: Candida glabrata BG2 (ATCC); test: Antifungal activity assay (MIC), NCCLS method; format: cell-based; settings: RPMI 1640 medium
Excerpt: as §1

[3] = tested on: Cryptococcus neoformans var. grubii H99 (ATCC); test: Antifungal activity assay (MIC), NCCLS method; format: cell-based; settings: RPMI 1640 medium
Excerpt: as §1

[4] = tested on: Cryptococcus neoformans wild-type (H99S); test: Drug efficacy in Galleria mellonella insect model infected with C. neoformans
Protocol: The wild-type (H99S) strain of Cryptococcus neoformans, which is pathogenic fungi, was inoculated into a yeast extract, peptone, and dextrose (YPD) liquid medium, cultured for 16 hours, and then washed twice with phosphate buffered saline (PBS), to prepare a final sample of 10^6 cells/ml. […] A 4 p1 suspension of C. neoformans prepared was injected into a proleg of larvae, so that 4,000 pathogen cells were infected per larva, in which an automatic injector (PB600-1) manufactured by Hamilton Company, and 100 pl syringes and needles were used. […] A group into which PBS alone was injected each time after the infection with C. neoformans was tested as a positive control, and a group in which both infection and drug injection were replaced with PBS was tested as a negative control. […] The larvae were determined as dead in a case where the larvae became dark-colored and made no movement. […] For significance with the controls, a significance level was determined using the Long-rank (Mantel-Cox) method.

[5] = tested on: Aspergillus fumigatus strains (KCCM32791, KCCM60031, KCCM60293, KCCM60036, KCCM60031, and KCCM60027); test: MIC test against several Aspergillus fumigatus strains (FIG. 2); format: cell-based
[6] = tested on: Fusarium graminearum (KCTC16656) and Fusarium (KSU11480); format: cell-based; settings: YPD solid medium, FIG. 4
[7] = tested on: Trichophyton tonsurans, Trichophyton rubrum, Trichophyton mentagrophytes; test: Suppressive activity against Trichophytons on YPD solid medium; format: cell-based; settings: six Trichophyton strains

## CCC(N)C(=O)NCc1ccc(OCc2cccc(F)c2)cc1.Cl (racemic) [Compound 18, (R)/(S)-1-((4-((3-(fluorobenzyl)oxy)benzyl)amino)-1-oxobutane-2-aminium chloride]
[1]
  MIC C. albicans: >128 µg/mL
[2]
  MIC C. glabrata: >128 µg/mL
[3]
  MIC C. neoformans: 128 µg/mL
[4]; PBS group all died
  survival rate on day 7 of the infection: 50%
[4]; drug injected 3 h after infection and once every 24 h for two more days, PBS group 60%
  survival of larvae on day 3 of the infection: all survived

## CCC(N)C(=O)NCc1ccc(OCc2ccc(C(F)(F)F)cc2)cc1.Cl (racemic) [Compound 22, (R)/(S)-1-oxo-1-((4-((4-(trifluoromethyl)benzyl)oxy)benzyl)amino)butane-2-aminium chloride]
[1]
  MIC C. albicans: 64 µg/mL
[2]
  MIC C. glabrata: 32 µg/mL
[3]
  MIC C. neoformans: 16 µg/mL
[5]
  inhibitory activity (MIC, average values) compared with amphotericin B: higher inhibitory activity than amphotericin B

## CCC(NC)C(=O)NCc1ccc(OCc2cccc(Cl)c2)cc1 (racemic) [Compound 28, (R)/(S)-N-(4-((3-chlorobenzyl)oxy)benzyl)-2-(methylamino)butanamide]
[1]
  MIC C. albicans: 64 µg/mL (≈ 185 µM)
[2]
  MIC C. glabrata: 64 µg/mL (≈ 185 µM)
[3]
  MIC C. neoformans: 16 µg/mL (≈ 46.1 µM)
[5]
  inhibitory activity (MIC, average values) compared with amphotericin B: higher inhibitory activity than amphotericin B

## CCCC(NC)C(=O)NCc1ccc(OCc2ccc(C(F)(F)F)cc2)cc1 (racemic) [Compound 30, (R)/(S)-2-(methylamino)-N-(4-(4-trifluoromethyl)benzyl)oxy)benzyl)pentanamide]
[1]
  MIC C. albicans: 8 µg/mL (≈ 20.3 µM)
[2]
  MIC C. glabrata: 8 µg/mL (≈ 20.3 µM)
[3]
  MIC C. neoformans: 2 µg/mL (≈ 5.07 µM)

## CCCC(NC)C(=O)NCc1ccc(OCc2ccc(C(F)(F)F)cc2)cc1 (racemic) [Compound 31, (R)/(S)-2-(methylamino)-N-(4-((4-trifluoromethyl)benzyl)oxy)benzyl)pentanamide]
[1]
  MIC C. albicans: 16 µg/mL (≈ 40.6 µM)
[2]
  MIC C. glabrata: 16 µg/mL (≈ 40.6 µM)
[3]
  MIC C. neoformans: 4 µg/mL (≈ 10.1 µM)

## Cl.O=C(NCc1ccc(OCc2ccc(F)cc2)cc1)C1CCCN1 (racemic) [Compound 39, (R)/(S)-N-(4-((4-fluorobenzyl)oxy)benzyl)pyrrolidine-2-carboxamide hydrochloride]
[1]
  MIC C. albicans: >128 µg/mL
[2]
  MIC C. glabrata: >128 µg/mL
[3]
  MIC C. neoformans: 128 µg/mL

## Cl.O=C(NCc1ccc(OCc2ccc(C(F)(F)F)cc2)cc1)C1CCCN1 (racemic) [Compound 40, (R)/(S)-N-(4-((4-(trifluoromethyl)benzyl)oxy)benzyl)pyrrolidine-2-carboxamide hydrochloride]
[1]
  MIC C. albicans: 64 µg/mL
[2]; hydrochloride
  MIC C. glabrata: 32 µg/mL
[3]; hydrochloride
  MIC C. neoformans: 16 µg/mL

## Cl.O=C(NCc1ccc(OCc2ccc(Cl)cc2)cc1)C1CCCN1 (racemic) [Compound 41, (R)/(S)-N-(4-((4-chlorobenzyl)oxy)benzyl)pyrrolidine-2-carboxamide hydrochloride]
[1]
  MIC C. albicans: 64 µg/mL
[2]; hydrochloride
  MIC C. glabrata: 64 µg/mL
[3]; hydrochloride
  MIC C. neoformans: 32 µg/mL

## CN1CCCC1C(=O)NCc1ccc(OCc2cccc(F)c2)cc1 (racemic) [Compound 42, (R)/(s)-1-methyl-N-(4-((3-fluorobenzyl)oxy)benzyl)pyrrolidine-2-carboxamide]
[1]
  MIC C. albicans: 128 µg/mL (≈ 374 µM)
[2]
  MIC C. glabrata: 128 µg/mL (≈ 374 µM)
[3]
  MIC C. neoformans: 16 µg/mL (≈ 46.7 µM)

## CN1CCCC1C(=O)NCc1ccc(OCc2ccc(C(F)(F)F)cc2)cc1 (racemic) [Compound 43, (R)/(S)-1-methyl-N-(4-((4-(trifluoromethyl)benzyl)oxy)benzyl)pyrrolidine-2-carboxamide]
[1]
  MIC C. albicans: 32 µg/mL (≈ 81.5 µM)
[2]
  MIC C. glabrata: 64 µg/mL (≈ 163 µM)
[3]
  MIC C. neoformans: 8 µg/mL (≈ 20.4 µM)

## CN1CCCC1C(=O)NCc1ccc(OCc2ccc(Cl)cc2)cc1 (racemic) [Compound 44, (R)/(s)-1-methyl-N-(4-((4-chlorobenzyl)oxy)benzyl)pyrrolidine-2-carboxamide]
[1]
  MIC C. albicans: 32 µg/mL (≈ 89.2 µM)
[2]
  MIC C. glabrata: 64 µg/mL (≈ 178 µM)
[3]
  MIC C. neoformans: 8 µg/mL (≈ 22.3 µM)

## Cl.O=C(NCc1ccc(OCc2cccc(F)c2)cc1)C1CCCN1 (racemic) [Compound 49, (R)/(S)-2-((4-((3-fluorobenzyl)oxy)benzyl)carbamoyl)pyrrolidi-1-nium chloride]
[1]
  MIC C. albicans: >128 µg/mL
[2]
  MIC C. glabrata: >128 µg/mL
[3]
  MIC C. neoformans: 32 µg/mL

## Cl.O=C(NCc1ccc(OCc2ccc(C(F)(F)F)cc2)cc1)C1CCCN1 (racemic) [Compound 50, (R)/(S)-2-((4-((4-(trifluoromethyl)benzyl)oxy)benzyl)carbamoyl)pyrrolidi-1-nium chloride]
[1]
  MIC C. albicans: 64 µg/mL
[2]
  MIC C. glabrata: 128 µg/mL
[3]
  MIC C. neoformans: 8 µg/mL

## Cl.O=C(NCc1ccc(OCc2ccc(Cl)cc2)cc1)C1CCCN1 (racemic) [Compound 51, (R)/(S)-2-((4-(4-chlorobenzyl)oxy)benzyl) carbamoyl)pyrrolidi-1-nium chloride]
[1]
  MIC C. albicans: 64 µg/mL
[2]
  MIC C. glabrata: 128 µg/mL
[3]
  MIC C. neoformans: 8 µg/mL

## CN1CCC(C(=O)NCc2ccc(OCc3cccc(F)c3)cc2)C1 (racemic) [Compound 52, (R)/(s)-1-methyl-N-(4-((3-fluorobenzyl)oxy)benzyl)pyrrolidine-3-carboxamide]
[1]
  MIC C. albicans: 128 µg/mL (≈ 374 µM)
[2]
  MIC C. glabrata: 128 µg/mL (≈ 374 µM)
[3]
  MIC C. neoformans: 8 µg/mL (≈ 23.4 µM)

## CN1CCC(C(=O)NCc2ccc(OCc3ccc(C(F)(F)F)cc3)cc2)C1 (racemic) [Compound 53, (R)/(S)-1-methyl-N-(4-((4-(trifluoromethyl)benzyl)oxy)benzyl)pyrrolidine-3-carboxamide]
[1]
  MIC C. albicans: 64 µg/mL (≈ 163 µM)
[2]
  MIC C. glabrata: 64 µg/mL (≈ 163 µM)
[3]
  MIC C. neoformans: 8 µg/mL (≈ 20.4 µM)

## CN1CCC(C(=O)NCc2ccc(OCc3ccc(Cl)cc3)cc2)C1 (racemic) [Compound 54, (R)/(s)-1-methyl-N-(4-((4-chlorobenzyl)oxy)benzyl)pyrrolidine-3-carboxamide]
[1]
  MIC C. albicans: 64 µg/mL (≈ 178 µM)
[2]
  MIC C. glabrata: 64 µg/mL (≈ 178 µM)
[3]
  MIC C. neoformans: 8 µg/mL (≈ 22.3 µM)

## C[C@@H]1[C@H](O)[C@@H](C)/C=C/C=C/C=C/C=C/C=C/C=C/C=C/[C@H](O[C@@H]2O[C@H](C)[C@@H](O)[C@H](N)[C@@H]2O)C[C@@H]2O[C@](O)(C[C@@H](O)C[C@@H](O)[C@H](O)CC[C@@H](O)C[C@@H](O)CC(=O)O[C@H]1C)C[C@H](O)[C@H]2C(=O)O [AmpB, amphotericin B, reference compound]
[1]
  MIC C. albicans: 0.25 µg/mL (≈ 0.271 µM)
[2]
  MIC C. glabrata: 0.5 µg/mL (≈ 0.541 µM)
[3]
  MIC C. neoformans: 0.125 µg/mL (≈ 0.135 µM)

## (R)/(S)-1-((4-((4-(trifluorobenzyl)oxy)benzyl)amino)-1-oxopentane-2-aminium chloride [Compound 26]
[1]
  MIC C. albicans: 16 µg/mL
[2]
  MIC C. glabrata: 8 µg/mL
[3]
  MIC C. neoformans: 4 µg/mL
[5]
  inhibitory activity (MIC, average values) compared with amphotericin B: higher inhibitory activity than amphotericin B
[6]
  suppressive activity against phytopathogenic fungi: very excellent suppressive activity
[7]
  suppressive activity against Trichophytons: excellent suppressive activity
